Reference: US10183026B2, “Method of adjuvant treatment with chlorophyllin containing therapeutic preparation including for radioprotection of normal tissues during radiation therapy and kit therefor” (priority 2016, dated 2019)

Key:
[1] = Pharmacokinetic study, serum half-life; format: in vivo; settings: mice
mice = assay: Acute oral toxicity in mice; format: in vivo; settings: up to an acute oral dose of 5 gm per Kg body weight
rats = assay: Acute oral toxicity in rats; format: in vivo; settings: up to an acute oral dose of 5 gm per Kg body weight
[2] = tested on: hematopoietic stem cells in the bone marrow; assay: Hoechst side population assay of bone marrow; format: in vivo, BALB/c mice; settings: 500 mg/Kg bw orally for 3 consecutive days
Description: 8- to 9 weeks-old inbred BALB/c male mice, weighing approximately 20-25 g, were grouped into untreated control and CHL treated groups.
(§1) CHL formulation dose and duration: 500 mg/Kg bw given orally for 3 consecutive days.
Side population analysis: The femur bones the above mentioned mice were dissected and the marrow was flushed out into cold Iscove's Modified Dulbecco's Medium (IMDM), 2% FBS using a 21-gauge needle. Nucleated cells were counted using Hemocytometer and trypan blue dye exclusion. Three million cells from each mouse were resuspended in pre-warmed (37° C.) DMEM without phenol red. Hoechst 33342 ([…]) was added and cells were incubated at 37° C. for 90 min with intermittent shaking. At the end of incubation, cells were washed with DMEM without phenol red and kept on ice and acquired on a flow cytometer within 2 h. Verapamil (100 μM concentration) treated bone marrow cells were used to identify the Hoechst side population in this assay.
Verapamil dose: 100 μM final concentration

G-CSF = assay: Serum levels of G-CSF as a function of time; format: in vivo, mice; settings: 500 mg/Kg bw orally for 3 days; 2, 24, 48 and 72 hrs
Description: as §1

Gr-1+ granulocytes = assay: Frequency of Gr-1+ granulocytes in bone marrow and blood; format: in vivo, mice
Description: Percent granulocytes are a biological marker for efficacy of chlorophyllin as a radioprotector in vivo. […] This is the preferred dose range. Although percentage of granulocytes increases at doses 720 and 900 mg/kg body weight, these doses are not preferred to be translated to humans. (FIG. 1E)

[3] = tested on: mice exposed to whole body irradiation; assay: Protection against whole body irradiation induced mortality (30 days survival); format: in vivo, BALB/c mice; settings: for Extent of protection offered to mice against radiation induced mortality: Oral; for protection against radiation induced mortality as monitored by 30 days survival: 100-1000 mg/kg b.w. (preferred 180-500) orally, table of expected outcome
Description: (§2) Experimental animals 8- to 9 weeks-old inbred BALB/c male mice, weighing approximately 20-25 g, were treated with CHL formulation at the dose of 500 mg/Kg bw given orally for 3 consecutive days followed by whole body irradiation [using a 60Co γ-irradiator at a dose rate of 1 Gy/min (BhabhatronI II, Panacea, India)] of 7.5 Gy in one group and 6 Gy radiation to another group. Treated groups were compared to untreated control and mice treated only with CHL formulation at the given dose and mice with whole body irradiation without the CHL formulation.
To assess the in vivo radio protective efficacy of chlorophyllin, mice were given three consecutive oral administrations of: CHL formulation 1 containing chlorophyllin (500-mg/kg bw) and penicillin (10-50 mg/kg+ streptomycin 20-80 mg/kgbw) or CHL formulation 2 containing chlorophyllin (500 mg/kg bw) and tetracycline (20-80 mg/kgbw) at 24 h interval and were exposed to 8 Gy dose of whole body irradiation (which is used as a supplement to surgery during radiotherapy of cancer patients) 2 h after the last injection. Formulation 3 is chlorophyllin alone given at a dose of 500 mg/kg bw for three consecutive days with a gap of 24 h between each dose.
Trials were conducted where chlorophyllin formulation ranging from 90 mg/kg bw to 2000 mg/kg body weight were administered to mice by oral gavage for three to four consecutive days at 24 h interval between doses. Alternatively, chlorophyllin was administered by intraperitoneal route (100 mg/kg body weight) for three consecutive days at 24 h interval. The mice were exposed to different doses of whole body irradiation (7.0 Gy, 7.5 Gy or 8 Gy) 2 h after last dose of chlorophyllin. The mice were monitored for changes in body weight and survival up to 30 days after WBI.

bone marrow cellularity = assay: Bone marrow cellularity after 6 Gy whole body radiation; format: in vivo, BALB/c mice; settings: 500 mg/Kg bw orally for 3 consecutive days
Description: as §2

[4] = tested on: lineage negative cells in the bone marrow; assay: Cell cycle of lineage negative cells in the bone marrow; format: in vivo, mice; settings: specified dose
bone marrow cells = assay: Colony forming units in bone marrow cells of whole body irradiated mice; format: cell-based; settings: bone marrow cells in vitro
normal lung epithelia = assay: Gamma radiation (4 Gy)-induced injury to lung epithelial cells (cellular atypia); format: in vivo
[5] = tested on: A549 human lung cancer cells; assay: Clonogenic survival assay, A549; format: cell-based
Description: (§3) A549 and MCF 7 cells (2000 cells for control, 4 Gy and 5000 cells for 8 Gy treatments) were plated overnight in 6 well plates followed by treatment with indicated concentrations of chlorophyllin (0, 10, 20, 50 or 100 μM) for 2 h and exposed to indicated doses of radiation. After radiation exposure plates were incubated at 37° C. in CO2 incubator for 12 days for the development of colonies. After the colony formation, the plates were washed with PBS, fixed with methanol and stained with crystal violet. The colonies with more than 50 cells were counted and the survival fraction was calculated using the following formula: Survival fraction=No. of colonies/[no. of cells plated X (plating efficiency/100)], where plating efficiency is the ratio between the number of colonies developed to the number of cells plated in control.

[6] = tested on: MCF7 human breast cancer cells; assay: Clonogenic survival assay, MCF7; format: cell-based
Description: as §3

[7] = tested on: A549 human lung cancer cells; assay: γH2AX foci formation assay, A549; format: cell-based; settings: 50 μM
Description: (§4) A549 cells and MCF (3×10^5 cells) were grown on the coverslip, treated with 50 μM of chlorophyllin, followed by 4 Gy radiation exposure. At different time intervals after irradiation (either 15 min or 120 min), cells were fixed with 4% paraformaldehyde, permeabilized using Triton X-100, blocked with 5% bovine serum albumin and then treated with anti-γ-H2AX antibody. Then cells were stained with FITC labeled secondary antibody and visualized using fluorescence microscope. The average number of foci per cell was calculated after counting the foci from 100 cells per group.

[8] = tested on: MCF7 human breast cancer cells; assay: γH2AX foci formation assay, MCF7; format: cell-based; settings: 50 μM
Description: as §4

[9] = tested on: MCF-7 human breast cancer cells; assay: Mitotic catastrophe, Hoechst stained nuclei; format: cell-based
Description: MCF-7 cells (3×10^5 cells) were grown on the coverslip, treated with indicated concentrations of chlorophyllin (0, 10, 20, 50 or 100 μM) and exposed for 48 hrs to indicated doses of radiation (4 Gy and 8 Gy). After irradiation cells were fixed and stained with Hoechst and observed under fluorescence microscope. Cells with mitotic abnormalities have been counted for each group.

MCF-7 cells = assay: Reactive oxygen species by DCFDA, DHE, DHR123 fluorescence; format: cell-based, human; settings: 50 μM
Description: MCF-7 cells (1×10^5) were stained with H2DCF-DA (10 μM) Ex./Em. 485/535 nm or dihydroethidium (DHE 5 μM) 518/605 nm or DHR 123 (5 μM) 500/536 nm for 20 min and incubated with chlorophyllin (50 μM) or vehicle for indicated time intervals at 37° C. Cells were exposed to 4 Gy IR and fluorescence was monitored at respective wavelengths using BioTek Microplate Reader (Synergy).

[10] = tested on: MCF7 human breast cancer cells; assay: Cancer stem cell frequency (Aldefluor, CD24-CD44+, Hoechst side population), MCF7; format: cell-based; settings: 4 Gy or 8 Gy
Description: (§5) For cancer stem cell analysis, by Aldefluor assay, MCF7 cells and MDA MB231 cells were stained with either Aldefluor reagent or PE-[…], APC-Cy7CD44, antibodies for 20 min on ice. The cells were washed and fixed with 1% paraformaldehyde for 20 min and stained with Hoechst 33342 (10 mg/ml) for 4 h. Isotype controls stained cells, single antibody stained cells, and fluorescence minus one (FMO) controls were used for compensation and gating. The cells were acquired on a flow Cytometer (Partec Cyflow) and analysed using FlowJo 7.6.5 (Treestar, Inc., Ashland) software.

[11] = tested on: MDA-MB 231 triple negative breast cancer cells; assay: Cancer stem cell frequency (CD24-CD44+, Hoechst side population), MDA-MB231; format: cell-based, human; settings: 50 μM, 4 Gy or 8 Gy
Description: as §5

[12] = tested on: MCF-7 human breast cancer xenograft tumors; assay: In vivo radiosensitization of human breast cancer xenograft in SCID mice
Description: MCF-7 cells (10×10^6 in 50 μl 1×PBS and 50 μl matrigel) were injected subcutaneously in foot pad of each mouse and tumors were monitored till they developed to measurable size. Mice were then treated with 500 mg/Kg bw chlorophyllin in PBS orally for three consecutive days. After last dose administration mice were locally exposed to IR 6 Gy (at the site of tumor) and subsequently monitored for 30 days for tumor growth and survival. Measurements of tumor were taken on alternate days using digital Vernier caliper and tumor volume was recorded. At the end of 30 days tumour mass was excised for further analysis.

[13] = tested on: mice exposed to whole body irradiation; assay: Protection against whole body irradiation induced mortality (30 days survival); format: in vivo, BALB/c mice; settings: 100 mg/kg bw, Intra peritoneal, 7.0 Gy
[14] = chlorophyllin alone, 10-100 μM, 2 h

chlorophyllin
serum half-life [1]: 2.363 h
toxicity (mice): did not show any toxicity
toxicity (rats): did not show any toxicity
increase of hematopoietic stem cells versus control [2]: 2-3 fold
abundance of hematopoietic stem cells (Hoechst side population) ([2]; control 0.121%): 0.573%
serum levels of G-CSF (G-CSF): maximum rise after 24 hrs
neutrophil frequency in the peripheral blood (Gr-1+ granulocytes; 500 mg/Kg bw orally for 3 days): increased neutrophil frequency
production of granulocytes (Gr-1+) in bone marrow (Gr-1+ granulocytes; 500 mg/Kg bw orally for 3 days): increase in the production of granulocytes
percent granulocytes, dose response (Gr-1+ granulocytes; doses up to 900 mg/kg body weight): increases up to 180 mg/kg and then plateaus up to 540 mg/kg body weight dose
Extent of protection offered to mice against radiation induced mortality ([3]; 90 mg/kg bw, 3 days, 7.5 Gy): 66.6%
Extent of protection offered to mice against radiation induced mortality ([3]; 180 mg/kg bw, 3 days, 7.5 Gy): up to 100%
Extent of protection offered to mice against radiation induced mortality ([3]; 180 mg/kg bw, 3 days, 7.5 Gy, listed as Chlorophyllin): 100%
Extent of protection offered to mice against radiation induced mortality ([3]; 500 mg/kg bw, 3 days, 7.5 Gy): 70%
Extent of protection offered to mice against radiation induced mortality ([3]; 2000 mg/kg bw, 4 days, 7.0 Gy): 50%
protection against whole body irradiation induced mortality ([3]; 7.5 Gy, 500 mg/Kg bw orally for 3 consecutive days): significantly protected
protection against radiation induced mortality as monitored by 30 days survival ([3]; 7.5 Gy, three consecutive days, without antibiotics): 100%
rescue from WBI-induced mortality, 30 days survival ([3]; 8 Gy WBI, 500 mg/kg bw, three consecutive days, 80% of irradiated mice died within 17 days): rescued all the mice
protection against radiation induced mortality as monitored by 30 days survival ([3]; 8 Gy, three consecutive days, with antibiotics): 100%
Extent of protection offered to mice against radiation induced mortality ([3]; chlorophyllin 500 mg/kg bw, 3 days, 8.0 Gy): 60%
recovery from radiation induced bone marrow aplasia (bone marrow cellularity): enhanced the recovery
cell cycle effect in lineage negative cells in the bone marrow [4]: transient cell cycle arrest
number of colony forming units (CFUs) in bone marrow cells (bone marrow cells): significantly increased
gamma radiation-induced injury to normal lung epithelia (cellular atypia) (normal lung epithelia): reduced
sensitization to radiation induced loss of clonogenic capacity ([5]; A549, 4 Gy, CHL 10, 20, 50 or 100 μM): able to sensitize
colony forming ability of A549 cells as compared to control [5, 14]: significantly decreased
sensitization to radiation induced loss of clonogenic capacity ([6]; MCF-7, 4 Gy, CHL 10, 20, 50 or 100 μM): significantly sensitized
colony forming ability of MCF-7 cells as compared to control [6, 14]: significantly decreased
number of γ-H2AX foci versus radiation alone ([7]; 15 min after 4 Gy): did not have any effect
number of γ-H2AX foci versus radiation alone ([7]; 120 minutes after 4 Gy): significantly higher
number of γ-H2AX foci versus radiation alone ([8]; 15 min after 4 Gy): did not have any effect
number of γ-H2AX foci versus radiation alone ([8]; 120 minutes after 4 Gy): significantly higher
radiation toxicity in human breast cancer cells in vitro ([9]; 4 Gy or 8 Gy, 10-100 μM): enhanced the radiation toxicity
mitotic abnormalities (micronuclei, multinucleated giant cells) ([9]; chlorophyllin prior to 4 Gy or 8 Gy, 48 h): pattern of mitotic catastrophe
radiation induced increase in intracellular ROS levels (MCF-7 cells; 4 Gy IR): attenuated
background levels of free radicals (MCF-7 cells; no radiation): able to scavenge
percentage of CD24-CD44+ cancer stem cells, combination with radiation ([10]; 50 μM): more effective than radiation or chlorophyllin alone
radiation induced increase in ALDH-positive cells ([10]; 100 μM): significantly attenuated
percentage of CD24-CD44+ cancer stem cells, combination with radiation [11]: more effective than radiation or chlorophyllin alone
prevention of growth of human breast cancer cells in SCID mice ([12]; 500 mg/Kg bw orally for three days + 6 Gy focal irradiation): most effective
reduction in tumor after exposure to IR as compared to control mice bearing human xenograft ([12]; 6 Gy, 100-1000 mg/kg b.w. (preferred 180-500) orally, three consecutive days, without antibiotics, table of expected outcome): (50%
tumour volume ([12]; chlorophyllin alone, 500 mg/Kg bw orally for three consecutive days): significant decrease
Extent of protection offered to mice against radiation induced mortality ([13]; 1 day): 30%
Extent of protection offered to mice against radiation induced mortality ([13]; 4 days): 70%
